Test results from patent US20130059324A1, “SYSTEMS AND METHODS FOR MECHANICALLY STRAINED CELL CULTURE” (THE UNIVERSITY OF KANSAS, priority 2010, published 2013).
Like-named read-outs stand apart in the source and are kept apart here.

Assays:
[1] = test system: cells in a static monolayer culture; assay: IC90 in static monolayer culture (tested concentration); assay type: cell-based; conditions: concentration that inhibits the growth of 90% of the cells in a static monolayer culture
Protocol: Table 1 includes a list of investigated chemotherapeutic drugs, their mechanisms of action and the tested concentrations.
(§1) After 72 hours of initial seeding, one of the five drugs was added to Treatments 3 and 6 of each cell line. […] The IC90, concentration of the drug that inhibits the growth of 90% of the cells in a static monolayer culture, was used to assure a significant inhibition in the absence of simulated forces. To insure comparability, an aliquot of 1 ml of media without the drug was added to each well in Treatments 2 and 5. After adding the drug or 1 ml of media, the plates from Treatments 5 and 6 were placed back on the baseplate and subjected to the same force profile as before for the remaining 72 hours. Plates from Treatments 2 and 3 (without forces) were placed in the same incubator for the remaining 72 hours.

[2] = test system: A549 cells; assay: Drug exposure with or without simulated forces, 6-well Bioflex plates, live cell count and exponential growth model; assay type: cell-based, human; conditions: for Growth Rates, With forces / Growth Rates, Without forces: drug at IC90 for 3 days; for Growth Rates, With forces: 20% maximum strain, 15 cycles/minute; for Growth Rates, Without forces: no forces, negative = reduction in viable cell count; for Effectiveness of The Drug, Without forces (E) / Effectiveness of The Drug, With forces (Ef): percentage reduction in live cell counts; for Effectiveness of The Drug, Without forces (E): 3-day drug exposure at IC90, no forces; for Effectiveness of The Drug, With forces (Ef): 3-day drug exposure at IC90, simulated forces
Protocol: (§2) Treatments 1, 2 and 3 served as unstretched controls for Treatments 4, 5 and 6, respectively. For each cell line and drug, all treatments were independently repeated at least 3 times on different days, with 3 replicates per Treatments 1 and 4 (n=9) and 5 replicates per all other treatments (n=15).
Cells were passaged in 75 cm2 culture flasks at 37° C. in 5% CO2, and trypsinized using TryplE™ Express (Gibco) containing phenol red.
Cells were plated in 6-well Bioflex® plates (Flexcell® International Corporation, Hillsborough, N.C.). Each well of the plate has a flexible elastic membrane coated with a thin layer of type I collagen. Type I collagen was chosen since it more accurately represents the physiology of lung tumor cells in vivo. […] In Treatments 1, 2 and 3, NCI-H358 and A549 cells were plated at a density of 100,000 and 20,000 cells/well in 2 ml of corresponding media, respectively. For treatments involving simulated forces (Treatments 4-6), NCI-H358 and A549 cells were plated at a density of 170,000 and 35,000 cells/well, respectively.
(§3) After allowing the cells to adhere to the membrane for 24 hours, the plates assigned for simulated forces were stretched using the FX-4000 Tension plus unit (Flexcell® International Corporation, Hillsborough, N.C.). The Flexcell unit was configured to deliver an alternating positive and negative pressure beneath the cell culture surfaces. Negative pressure pulls the culture surface down over a stationary Delrin post on the baseplate, delivering a uniform biaxial strain to the cells, and subsequent application of positive pressure releases this distension (FIGS. 9A and 9B.) In this manner, the alternating positive and negative pressure simulates forces experienced during respiration. Culture plates experiencing forces were fitted with rubber gaskets and placed on circular loading stations in the baseplate.
After 72 hours of initial seeding, one of the five drugs was added to Treatments 3 and 6 of each cell line. […] To insure comparability, an aliquot of 1 ml of media without the drug was added to each well in Treatments 2 and 5. After adding the drug or 1 ml of media, the plates from Treatments 5 and 6 were placed back on the baseplate and subjected to the same force profile as before for the remaining 72 hours. Plates from Treatments 2 and 3 (without forces) were placed in the same incubator for the remaining 72 hours.
(§4) Cells were trypsinized and counted at the end of day 3 in Treatments 1 and 4, and at the end of day 6 in the other treatments, using a Beckman Coulter Vi-Cell Analyzer (Beckman Coulter, Fullerton, Calif.). To examine changes in morphology, microphotographs of A549 and NCI-H358 cells were taken at the end of Treatments 1, 2, 4 and 5 using an Olympus inverted microscope and a 10× objective.
The standard exponential cell growth model (28) was used to describe the changes in live cell counts after each treatment. According to this model, the cell count (e.g., N) at a particular time (e.g., t), is given by the equation:
N* is the initial cell count and λ is the cell growth rate. For each cell line, the following cell growth rates were estimated: λ=growth rate in the absence of forces and drugs, λd=growth rate in the presence of a particular drug but no forces, λXf=growth rate in the presence of forces but no drugs; and λfd=growth rate in the presence of forces and a particular drug. The growth rates λd and λfd were estimated for each tested drug. Using these growth rates and the exponential growth model, the final cell counts were mathematically modeled for each treatment under various conditions (FIG. 8). For each cell line, a linear regression model that combined the information from the 5 investigated drugs was built using Stata Statistical Software (StataCorp LP, Texas) after log-transforming the six equations listed in FIG. 8. The regression coefficients in the model were the growth rates.

[3] = test system: NCI-H358 cells; assay: as above; assay type: cell-based, human; conditions: for Growth Rates, With forces / Growth Rates, Without forces: drug at IC90 for 3 days; for Growth Rates, With forces: 20% maximum strain, 15 cycles/minute; for Growth Rates, Without forces: no forces; for Effectiveness of The Drug, Without forces (E) / Effectiveness of The Drug, With forces (Ef): percentage reduction in live cell counts; for Effectiveness of The Drug, Without forces (E): 3-day drug exposure at IC90, no forces; for Effectiveness of The Drug, With forces (Ef): 3-day drug exposure at IC90, simulated forces
From the text: as §2
The NCI-H358 (ATCC® CRL-5807) and A549 (ATCC® CCL-185) cell lines were obtained from American Type Culture Collection (ATCC, Manassas, Va.) and cultured in RPMI-1640 (NCI-H358) and HAM's F12K (A549) media containing 10% Fetal Bovine Serum (Sigma Aldrich, St. Louis, Mo.) and 1% Penicillin Streptomycin (Sigma Aldrich). Cells were passaged in 75 cm2 culture flasks at 37° C. in 5% CO2, and trypsinized using TryplE™ Express (Gibco) containing phenol red.
Cells were plated in 6-well Bioflex® plates (Flexcell® International Corporation, Hillsborough, N.C.). Each well of the plate has a flexible elastic membrane coated with a thin layer of type I collagen. Type I collagen was chosen since it more accurately represents the physiology of lung tumor cells in vivo. The Flexcell is not configured for drug studies as described herein, and had to be modified as described herein. […] Therefore, to have the same number of cells in culture at the time of drug exposure, initial seeding densities for treatments not involving simulated forces (Treatments 1-3) and those involving forces (Treatments 4-6) were adjusted for each cell line. In Treatments 1, 2 and 3, NCI-H358 and A549 cells were plated at a density of 100,000 and 20,000 cells/well in 2 ml of corresponding media, respectively. For treatments involving simulated forces (Treatments 4-6), NCI-H358 and A549 cells were plated at a density of 170,000 and 35,000 cells/well, respectively.
as §3, with “baseplate. […] Cells were preconditioned with mechanical forces for 48 hours, in an incubator at 37° C., 5% CO2 and 95% relative humidity.” for “baseplate.”
as §1, §4
The standard exponential cell growth model (28) was used to describe the changes in live cell counts after each treatment. […]

[4] = test system: H358 cells; assay: Prototype 96-well plate, viable cell count (Vi-Cell) with and without mechanical forces; assay type: cell-based, human; conditions: for Effect of mechanical forces on viable cell count / cytotoxicity: 24 hours drug exposure, prototype 96-well plate; for Viable Cell Count after 24 hours of drug exposure, With forces (Ef) / Viable Cell Count after 24 hours of drug exposure, Without forces (E): drug at IC90, 24 hours; for Viable Cell Count after 24 hours of drug exposure, With forces (Ef): mechanical forces; for Viable Cell Count after 24 hours of drug exposure, Without forces (E): no forces
Protocol: (§6) After allowing the cells to adhere to the flexible membrane of the 96 well plate for 24 hours, the loading pins and the system described in FIG. 7 to implement mechanical strain were used to deliver 20% maximum strain for 2 seconds to the plate assigned for mechanical forces (+M Group), followed by 2 seconds of rest (15 cycles per minute with an average strain of 10% per cycle) in keeping with a normal human respiration.
In a parallel experiments, the cells were treated with anti-tumor drug after 72 hours of initial seeding (after 48 hours of mechanical stretching). The drug was dissolved in dimethyl sulfoxide (DMSO) at stock concentration and added to the respective media. An aliquot of 50 μl of drug stock solution was added to the well containing 100 μl of media (a 1:3 dilution) in a drug plate to get the desired IC90 concentration of the drug (Table 1). The IC90 concentrations of the drugs were then added to prototype plate.
(§7) The +M Group was subjected to continuous mechanical stretching while the −M Group plate was placed in the same incubator for additional 24 hours.
In order to quantify viability, 6 wells per treatment group for ViCell counter and 6 wells per condition for MTS were assigned to determine the cell viability. Using Vi-Cell counter, assigned wells were filled with extra 210 μl of media to keep the volume constant in all the wells.

[5] = test system: A549 cells; assay: Prototype 96-well plate, MTS assay with and without mechanical forces; assay type: cell-based, human
Protocol: (§5) The prototype plate was read using the Biotek plate reader at the wavelength of 490 nm until the media only wells absorbance reached 1.0. For the +M group plate, 30 ul of MTS was added to the assigned wells and kept in the incubator for the same amount of time that required for the −M group to develop and read at the same wavelength.

[6] = test system: H358 cells; assay: as above; assay type: cell-based, human; conditions: drug at IC90, 24 hours, 490 nm; for MTS absorbance after 24 hours of drug exposure, With forces (Ef): mechanical forces; for MTS absorbance after 24 hours of drug exposure, Without forces (E): no forces
Protocol: as §5

[7] = test system: A549 cells
Protocol: as §6
(§8) In a parallel experiments, the cells were treated with anti-tumor drug after 72 hours of initial seeding (after 48 hours of mechanical stretching). The drug was dissolved in dimethyl sulfoxide (DMSO) at stock concentration and added to the respective media. […] The IC90 concentrations of the drugs were then added to prototype plate.
as §7
(§9) In order to quantify viability, 6 wells per treatment group for ViCell counter and 6 wells per condition for MTS were assigned to determine the cell viability. Using Vi-Cell counter, assigned wells were filled with extra 210 μl of media to keep the volume constant in all the wells. Media from the assigned wells were transferred into a 24-well plate, and the well location was recorded. About 50 μl of trypLE was added to each well and allowed to trypsinize for a maximum of ten minutes. A small amount of media from the 24-well plate was transferred back into corresponding wells of the prototype plate to collect detached cells.
(§10) Media and cells were transferred back into the corresponding well of the 24-well plate. All wells were brought to a final volume of 1.25 mL with PBS and mixed well. About 1 ml of this cell suspension was transferred to ViCell counter to determine the number of viable cells.

[8] = test system: A549 cells; assay: Prototype 96-well plate, viable cell count (Vi-Cell) with and without mechanical forces
Protocol: as §6, §8, §7, §9, §10

| SMILES | IC90 [1] [µM] | Growth Rates, With forces [2] [per day] | Growth Rates, Without forces [2] [per day] | Effectiveness of The Drug, Without forces (E) [2] [%] | Effectiveness of The Drug, With forces (Ef) [2] [%] | Growth Rates, With forces [3] [per day] | Growth Rates, Without forces [3] [per day] | Effectiveness of The Drug, Without forces (E) [3] [%] | Effectiveness of The Drug, With forces (Ef) [3] [%] | Effect of mechanical forces on viable cell count / cytotoxicity [4] | Viable Cell Count after 24 hours of drug exposure, With forces (Ef) [4] | Viable Cell Count after 24 hours of drug exposure, Without forces (E) [4] | MTS absorbance after 24 hours of drug exposure, With forces (Ef) [6] | MTS absorbance after 24 hours of drug exposure, Without forces (E) [6] | other results |
| --- | --- | --- | --- | --- | --- | --- | --- | --- | --- | --- | --- | --- | --- | --- | --- |
| COc1cccc2c1C(=O)c1c(O)c3c(c(O)c1C2=O)C[C@@](O)(C(=O)CO)C[C@@H]3O[C@H]1C[C@H](N)[C@H](O)[C@H](C)O1 [Doxorubicin] | 30 | −0.268 | −0.170 | 90.7 | 78.7 | −0.357 | −0.031 | 72.7 | 73.9 | decrease in the ability | 7500.0 | 17750.0 | 0.488 | 0.629 | MTS absorbance after 24 hours of drug exposure, With forces (Ef) [5]: 0.430; MTS absorbance after 24 hours of drug exposure, Without forces (E) [5]: 0.697; Effect of mechanical forces on viable cell count / cytotoxicity [7]: Statistically significant reduction |
| N.N.[Cl][Pt][Cl] [Cisplatin] | 50 | −0.211 | −0.204 | 91.6 | 74.7 | −0.233 | −0.027 | 72.4 | 62.1 | – | – | – | – | – | Effectiveness of The Drug, Without forces (E) ([2]; listed as P00004): 91.6%; Effectiveness of The Drug, With forces (Ef) ([2]; listed as P00004): 74.7% |
| COc1cc2c(Nc3ccc(Br)cc3F)ncnc2cc1OCC1CCN(C)CC1 [Zactima] | 50 | −0.398 | −0.055 | 86.8 | 85.6 | −0.833 | −0.163 | 81.6 | 93.7 | decrease in the ability | 11000.0 | 22000.0 | 0.368 | 0.536 | Effectiveness of The Drug, Without forces (E) ([3]; listed as P00006): 81.6%; Effectiveness of The Drug, With forces (Ef) ([3]; listed as P00006): 93.7%; MTS absorbance after 24 hours of drug exposure, With forces (Ef) ([5]; A549, drug at IC90, 24 hours, 490 nm, mechanical forces): 0.307; MTS absorbance after 24 hours of drug exposure, Without forces (E) ([5]; A549, drug at IC90, 24 hours, 490 nm, no forces): 0.495; Effect of mechanical forces on viable cell count / cytotoxicity ([8]; 24 hours drug exposure, prototype 96-well plate): remained unaffected; Viable Cell Count after 24 hours of drug exposure, With forces (Ef) ([8]; drug at IC90, 24 hours, mechanical forces): 15625.0; Viable Cell Count after 24 hours of drug exposure, Without forces (E) ([8]; drug at IC90, 24 hours, no forces): 23333.3 |
